Legend:
[1] = WO 00/21390; cited from earlier work
[2] = Masking or reduction of unpleasant (bitter) flavour impression in preparations, rated by a group of experts; details: against caffeine, quinine, naringin, potassium chloride, magnesium sulfate, beta-lactam antibiotics
Procedure: (§1) To quantify the reduction in the bitter impression with the use of γ-aminobutyric acid, the bitterness of a 500 ppm caffeine solution (comparative solution; not according to the invention) and of four samples according to the invention containing 500 ppm of caffeine and differing amounts of γ-aminobutyric acid was determined by a group of experts (rating 0 [not bitter] to 10 [extremely bitter]).
as §1, with “impression,” for “impression with the use of γ-aminobutyric acid,”, “12.5” for “500”, “quinine hydrochloride” for “caffeine”, “eight” for “four”, “5” for “10”
To quantify the reduction in the bitter impression, the bitterness of (a) a 500 ppm caffeine solution (basic solution), (b) a sample containing 500 ppm of caffeine, 100 ppm of homoeriodictyol sodium salt and 20 ppm of γ-aminobutyric acid, and (c) a sample containing 500 ppm of caffeine and 20 ppm of γ-aminobutyric acid was determined by a group of experts (rating 1 [not bitter] to 10 [extremely bitter]). […]

| Compound | concentration needed as bitterness-masking agent [1] | concentration in preparations at which the unpleasant, in particular bitter, flavour impression is reduced or completely suppressed [2] |
| --- | --- | --- |
| polyglutamic acid | around 1 wt. % |  |
| NCCCC(=O)O [γ-aminobutyric acid] |  | less than 0.1 wt. % |
